Measurements published in PubChem BioAssay (NCI).
Several values for one entry are separate records, joined by “and”; a condition that tells them apart may be missing. Identical values can stand only once.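 Grown in 96-well plates, cells were treated for 48 hours with each compound at five concentrations. Insufficient inhibition: endpoint recorded as highest concentration tested. Abbreviation: GI50, concentration required for 50% inhibition of growth. At the TGI there is no net growth.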

Key:
Test in all cases: DTP human tumour cell line panel, 48 h
U251 CNS = test system: U251 CNS
HT29 colon = test system: HT29 colon
T-47D breast = test system: T-47D breast
ACHN renal = test system: ACHN renal
RPMI-8226 leukemia = test system: RPMI-8226 leukemia
SK-MEL-28 melanoma = test system: SK-MEL-28 melanoma
SW-620 colon = test system: SW-620 colon
SF-268 CNS = test system: SF-268 CNS
NCI/ADR-RES ovarian = test system: NCI/ADR-RES ovarian
RXF 393 renal = test system: RXF 393 renal

Structure (SMILES) | TGI (U251 CNS) | TGI (HT29 colon) | TGI (T-47D breast) [µM] | TGI (ACHN renal) | TGI (RPMI-8226 leukemia) | TGI (SK-MEL-28 melanoma) | TGI (SW-620 colon) | TGI (SF-268 CNS) | TGI (NCI/ADR-RES ovarian) [µM] | TGI (RXF 393 renal) | GI50 (RPMI-8226 leukemia)
CC(CC(C#N)(c1ccccc1)c1ccccc1)N1CCCCC1 (stereo unspecified) | > 100 µM | 51 µM | > 100 | > 100 µM | 40.7 µM | 67 µM | 49.5 µM | > 100 µM | > 100 | > 100 µM | –
C=C1[C@@H](O)C[C@@]23CC[C@@H]4[C@@]5(C)CC[C@@H](OC(C)=O)C(C)(C)[C@@H]5C[C@@H](OC5OC(COC(C)=O)C(O)C(O)C5O)[C@@]4(C)C2=CC[C@H]3[C@H]1C (stereo partly specified) | 12.5 µM | 4.75 µM | 19.2 | 21.9 µM | 8.01 µM | 19.8 µM | 21.7 µM | 19 µM | 35.3 | 18.7 µM | –
COc1ccc(N2C(=O)c3c4c(c5c([nH]c6ncccc65)c3C2=O)CCC(C(C)(C)C)C4)cc1 (stereo unspecified) | 98 µM | > 100 µM | > 100 | > 100 µM | > 100 µM | > 100 µM | > 100 µM | > 100 µM | > 100 | > 100 µM | –
Cc1ccc(S(=O)(=O)Oc2cc(N)c3c(n2)CCC3)cc1 | > 100 µM | > 100 µM | > 100 | > 100 µM | > 100 µM | > 100 µM | > 100 µM | > 100 µM | > 100 | > 100 µM | –
O=C1NCCCc2nonc21 | > 100 µM | > 100 µM | > 100 | > 100 µM | > 100 µM | > 100 µM | > 100 µM | > 100 µM | > 100 | > 100 µM | –
O=C1C(c2c(O)[nH]c3ccc(S(=O)(=O)O)cc23)=Nc2ccccc21 | > 100 µM | > 100 µM | > 100 | > 100 µM | > 100 µM | > 100 µM | > 100 µM | > 100 µM | > 100 | > 100 µM | –
COc1ccc(N[C@H](CSc2ccc(C)cc2)c2ccc(F)cc2)cc1 | > 100 µM | > 100 µM | > 100 | > 100 µM | > 100 µM | > 100 µM | > 100 µM | > 100 µM | > 100 | > 100 µM | –
O=C1CCC(=Nc2ccc(Cl)cc2)N1C(=O)COc1ccc(OCC(=O)N2C(=O)CSC2=Nc2ccc(Cl)cc2)cc1 | > 100 µM | > 100 µM | > 100 | > 100 µM | > 100 µM | > 100 µM | > 100 µM | > 100 µM | > 100 | > 100 µM | –
CC1(C)C(c2ccccc2)=[N+]([O-])C(C)(C)N1O | > 10 µM | > 10 µM | > 10 | > 10 µM | > 10 µM | > 10 µM | > 10 µM | > 10 µM | > 10 | > 10 µM | –
C/C(N=Nc1nc2ccccc2s1)=C1/C=CC=CN1O | > 100 µM | > 100 µM | > 100 | > 100 µM | > 100 µM | > 100 µM | > 100 µM | > 100 µM | 98.1 | > 100 µM | –
Cc1cc(-c2nc3c(O)cccc3s2)ccc1N | > 100 µM | 53.3 µM | > 100 | 43.4 µM | > 100 µM | > 100 µM | > 100 µM | 75.6 µM | 50.4 | > 100 µM | –
O=c1cc(/C=C/c2ccc(O)c(O)c2)oc(/C=C/c2ccc(O)c(O)c2)c1 | 9.57 µM | 25.3 µM | 9.5 | 16.1 µM | > 27.4 µM | 31.6 µM | > 26.8 µM | 13.2 µM | > 65.3 | 9.12 µM | –
O=C1CCSSCCC(=O)NCCN1 | > 100 µM | > 100 µM | > 100 | > 100 µM | > 100 µM | > 100 µM | > 100 µM | > 100 µM | > 100 | > 100 µM | –
NC(CSCc1ccccc1)C(=O)O (stereo unspecified) | > 100 µM | > 100 µM | > 100 | > 100 µM | > 100 µM | > 100 µM | > 100 µM | > 100 µM | > 100 | > 100 µM | –
COC(=O)c1c(C)cccc1/C=C1/Cc2c(C)cccc2C1=O | > 100 µM | > 100 µM | > 100 | > 100 µM | 8.51 µM | > 100 µM | > 100 µM | > 100 µM | > 100 | > 100 µM | –
C=C1C(=O)OC2/C=C(\CO)C(OC(C)=O)CC(O)/C(C)=C/C(OC(=O)C(C)CC)C12 (stereo unspecified) | > 91.6 µM and 66.3 µM | 46.6 µM and 35.5 µM | 30.7 | 56.7 µM and 72.7 µM | 23.4 µM and 56.3 µM | 32.3 µM and 70.1 µM | 24.4 µM and 78 µM | 73.3 µM and 49.9 µM | > 100 | 40 µM and 49.8 µM | 5.57 µM and 24.9 µM
CCC1=CCC23C(=O)C=CC(=O)C2(C1)C(=O)c1cccc(OC)c1C3=O (stereo unspecified) | 61.8 µM | 55.8 µM | 22.6 | 27.4 µM | 33.4 µM | 33.3 µM | 34 µM | 36.2 µM | 59.5 | 21 µM | –
O=[N+]([O-])C(=C(N1CCCCC1)N1CCCCC1)/C(Cl)=C(\Cl)Br | 56.3 µM | > 100 µM | 65.1 | 79.5 µM | 44.2 µM | 41.4 µM | 38.5 µM | 87.9 µM | 91.8 | 62.9 µM | –
